Converted amounts (≈) assume the structure as drawn. Where two headings read alike, the source gives them in different places.
Assays:
[1] = test system: thymidine kinase positive herpes virus; assay: In vivo test in guinea pigs inoculated with herpes virus, lesions measured; details: for Satellite lesions: five days later; for TK+ virus, average number of lesions: measured five days later
Experimental: The compound of Example II was tested in vivo in guinea pigs as an agent against thymidine kinase positive herpes virus. The animals were innoculated with the virus. Eighteen hours later the material of Example II (0.4% solution in water or 1-2% solution), a 5% solution of acyclovir or a 1.4% solution of poly(vinylalcohol) was administered and five days later blister diameters at the point of innoculation were measured. Satellite lesions were measured as well.

[2] = test system: Thymidine Kinase-Positive Type 1 Herpes Virus; assay: In vitro antiviral test, inhibition of viral cytopathic effect (CPE) in MA-104 cell monolayers; assay type: cell-based, Strain McCrae of type 1 herpes
Experimental: The compounds of Example I and II were evaluated in vitro as antiviral agents against herpes virus.
The virus strain employed was Strain McCrae of type 1 herpes (thymidine kinase positive virus) prepared and titered in MA-104 cells and frozen at -90°C until use.
(§1) Continuous passaged monkey kidney (MA-104) cells were used, with growth medium consisting of Minimum Essential Medium (MEM) supplemented with 0.1% NaHCO₃ and 9% fetal calf serum. Test medium consisted of MEM supplemented with 2% fetal bovine serum, 0.18% NaHCO₃ and […] gentamicin.
The last compounds were added to test medium at a concentration of 2000 µg/ml for use as a positive control.
(§2) To a 96 well microtiter plate containing an established 24 hour monolayer of cells from which the medium has been decanted was added 0.1 ml of varying (one-half log₁₀) concentrations of test compound, which incubated on the cell 15 minutes, after which 0.1 ml of virus in a concentration of 320 cell culture 50% infectious doses (CCID50)/0.1 ml was added. The plate was covered with plastic wrap and incubated at 37°C. Included with the test were toxicity controls (each concentration of compound + test medium in place of […]) and cell controls (test medium in place of compound and virus). The cells were examined microscopically after 72 hours for evidence of cytotoxicity and for viral cytopathic effect (CPE). Vidarabine was run on the same plate in parallel.
(§3) Antiviral activity was determined by observation of inhibition of viral CPE. This activity was expressed by minimum inhibitory concentration (MIC), Defined as that dose range of compound causing 50% CPE inhibition. A Virus Rating (VR) was also determined, which is a numerical expression of antiviral activity, weighted to take into account any cytotoxicity observed. Generally, a VR of 0.1 - 0.4 is usually indicative of slight antiviral effect, 0.5 - 0.9 indicates moderate antiviral effedt, and >1.0 implies strong antiviral activity.

cytomegalo virus = assay: In vitro antiviral test (CPE inhibition method) against cytomegalo virus; assay type: cell-based
Experimental: as §2
as §3, with “Generally, a VR of 0.1 - 0.4 is usually indicative of slight antiviral effect, 0.5 - 0.9 indicates moderate antiviral effedt, and >1.0 implies strong antiviral activity.” left out
The compound of Example II was further evaluated by the above-described in vitro test method against cytomegalo virus. […]

[3] = Cytotoxicity (toxicity controls) in the antiviral test, maximum tolerated dose; assay type: cell-based; details: monkey, ma-104 cells, Table B
Experimental: as §1, §2

[4] = 5% solution given eighteen hours after inoculation
[5] = Table A, 0.1 - 0.4 = slight, 0.5 - 0.9 = moderate, ≥ 1.0 = strong activity
[6] = 0.4% solution in water given eighteen hours after inoculation
[7] = 1-2% saturated solution given eighteen hours after inoculation
[8] = Test 1, read-out: MTD (Maximum tolerated dose)
[9] = Test 2, read-out: MTD (Maximum tolerated dose)
[10] = MA104, read-out: MIC (Minimum inhibitory concentration)
[11] = MA104, read-out: Test1 CPE Inhib. (%)
[12] = MA104, read-out: Test2 CPE Inhib. %
[13] = MA104, 72 h, read-out: CPE Inhib. (%)

Structure (SMILES) | VR (Virus rating) [2, 5] | MNTC at 72 h [3, 8] | MNTC at 72 h [3, 9] | EC50 [2, 10] | inhibition at 3.2 µg/mL [2, 11] | inhibition at 10 µg/mL [2, 11] | inhibition at 32 µg/mL [2, 11] | inhibition at 100 µg/mL [2, 11] | inhibition at 320 µg/mL [2, 11] | inhibition at 1000 µg/mL [2, 11] | inhibition at 3.2 µg/mL [2, 12] | inhibition at 10 µg/mL [2, 12] | inhibition at 32 µg/mL [2, 12] | inhibition at 100 µg/mL [2, 12] | inhibition at 320 µg/mL [2, 12] | inhibition at 1000 µg/mL [2, 12] | VR (Virus rating) ([2]; Table B, Test 1) | VR (Virus rating) ([2]; Table B, Test 2) | other results
Nc1nc2c(ncn2COCCO)c(=O)[nH]1 [Acyclovir, acyclovir, reference compound] | – | – | – | – | – | – | – | – | – | – | – | – | – | – | – | – | – | – | Satellite lesions [1, 4]: 4; TK+ virus, average number of lesions [1, 4]: 1.0
Nc1nc2c(ncn2COCCCP(=O)(O)O)c(=O)[nH]1 [Example I, 9(3-phosphono-1-propyloxymethyl)guanine] | 1.4 | – | – | – | – | – | – | – | – | – | – | – | – | – | – | – | – | – | inhibition at 1 µg/mL ([2]; MA104, Table A, conc. 1.0 μg/ml, 72 hours, read-out: CPE Inhib. (%)): 31%; inhibition at 3.2 µg/mL ([2]; MA104, Table A, conc. 3.2 μg/ml, 72 hours, read-out: CPE Inhib. (%)): 28%; inhibition at 10 µg/mL ([2]; MA104, Table A, conc. 10 μg/ml, 72 hours, read-out: CPE Inhib. (%)): 49%; inhibition at 32 µg/mL ([2]; MA104, Table A, conc. 32 μg/ml, 72 hours, read-out: CPE Inhib. (%)): 62%; inhibition at 100 µg/mL ([2]; MA104, Table A, conc. 100 μg/ml, 72 hours, read-out: CPE Inhib. (%)): 79%; inhibition at 320 µg/mL ([2]; MA104, Table A, conc. 320 μg/ml, 72 hours, read-out: CPE Inhib. (%)): 94%; inhibition at 1000 µg/mL ([2]; MA104, Table A, conc. 1000 μg/ml, 72 hours, read-out: CPE Inhib. (%)): 100%; EC50 ([2]; MA104, Table A, dosage range wherein a 50% CPE inhibition is seen, read-out: MIC (Minimum inhibitory concentration)): 10 µg/mL (≈ 33 µM)
CCOP(=O)(O)CCCOCn1cnc2c(=O)[nH]c(N)nc21 [Example II, 9(3-ethylphosphono-1-propyloxymethyl)guanine] | – | 320 µg/mL | > 1000 µg/mL | < 1 µg/mL | 96% | 38% | 6% | 47% | 82% | 100% | 52% | 48% | 57% | 57% | 67% | 76% | >2.0 | >1.4 | VR (cytomegalo virus): 2.1-2.3; Satellite lesions [1, 6]: 11; TK+ virus, average number of lesions [1, 6]: 2.1; Satellite lesions [1, 7]: 6; TK+ virus, average number of lesions [1, 7]: 0.9; inhibition at 1.2 µg/mL [2, 11]: 69%; inhibition at 1.2 µg/mL [2, 12]: 48%; MIC (Minimum inhibitory concentration) ([2]; Table B, Test 2, dosage range wherein a 50% CPE inhibition is seen): <1.0 µg/mL
Nc1ncnc2c1ncn2[C@@H]1O[C@H](CO)[C@@H](O)[C@@H]1O [Vidarabine, reference compound] | 1.3 | 10 µg/mL | 10 µg/mL | 10 µg/mL (≈ 37.4 µM) | 2% | 60% | 96% | 96% | 100% | 100% | 0% | 39% | 57% | 85% | 100% | 100% | 0.8 | 07 | inhibition at 1 µg/mL [2, 13]: 56%; inhibition at 3.2 µg/mL [2, 13]: 28%; inhibition at 10 µg/mL [2, 13]: 69%; inhibition at 32 µg/mL [2, 13]: 87%; inhibition at 100 µg/mL [2, 13]: 87%; inhibition at 320 µg/mL [2, 13]: 100%; inhibition at 1000 µg/mL [2, 13]: 100%
